Assay results published in the NIST ThermoML archive (doi:10.1016/j.jct.2017.10.016).
Numbers after ± are expanded uncertainties.

Assay: xn = mol fraction of the nth substance listed
Conditions: Liquid, Buoyancy - hydrostatic balance with magnetic suspension - one sinker

C=C(F)C(F)(F)F [2,3,3,3-tetrafluoro-1-propene] + CCC
Conditions | mass density [kg/m3]
255.05 K, x1 = 0.217 | 705.65 ± 3.9
255.24 K, x1 = 0.322 | 772.45 ± 3.9
257.01 K, x1 = 0.422 | 831.62 ± 3.8
259.89 K, x1 = 0.322 | 763.53 ± 3.8
259.9 K, x1 = 0.533 | 897.69 ± 3.9
260.22 K, x1 = 0.217 | 695.43 ± 3.9
260.27 K, x1 = 0.422 | 825.19 ± 3.8
264.82 K, x1 = 0.322 | 754.19 ± 3.8
264.85 K, x1 = 0.533 | 887.37 ± 3.9
264.95 K, x1 = 0.217 | 686.56 ± 3.9
265.38 K, x1 = 0.422 | 815.01 ± 3.8
269.81 K, x1 = 0.533 | 876.78 ± 3.8
269.89 K, x1 = 0.217 | 677.65 ± 3.8
269.95 K, x1 = 0.322 | 744.13 ± 3.8
270.15 K, x1 = 0.422 | 805.93 ± 3.8
270.16 K, x1 = 0.113 | 610.61 ± 3.9
274.77 K, x1 = 0.533 | 865.74 ± 3.7
274.83 K, x1 = 0.217 | 668.53 ± 3.8
274.96 K, x1 = 0.113 | 602.76 ± 3.8
275.02 K, x1 = 0.625 | 920.19 ± 3.6
275.16 K, x1 = 0.422 | 794.82 ± 3.8
275.2 K, x1 = 0.322 | 733.29 ± 3.7
279.91 K, x1 = 0.217 | 658.85 ± 3.7
279.98 K, x1 = 0.422 | 784.38 ± 3.7
280.01 K, x1 = 0.113 | 594.34 ± 3.7
280.03 K, x1 = 0.322 | 723.1 ± 3.7
280.14 K, x1 = 0.625 | 907.78 ± 3.6
280.17 K, x1 = 0.533 | 852.23 ± 3.7
284.9 K, x1 = 0.322 | 712.55 ± 3.7
284.91 K, x1 = 0.217 | 649.05 ± 3.6
284.93 K, x1 = 0.113 | 585.81 ± 3.7
284.95 K, x1 = 0.533 | 840.56 ± 3.6
284.97 K, x1 = 0.422 | 774.16 ± 3.7
285.18 K, x1 = 0.625 | 895.02 ± 3.6
289.94 K, x1 = 0.533 | 828.05 ± 3.6
289.97 K, x1 = 0.422 | 762.51 ± 3.6
290 K, x1 = 0.533 | 827.87 ± 3.6
290.02 K, x1 = 0.113 | 576.78 ± 3.6
290.02 K, x1 = 0.217 | 638.62 ± 3.6
290.08 K, x1 = 0.322 | 700.83 ± 3.6
290.11 K, x1 = 0.625 | 882 ± 3.6
294.96 K, x1 = 0.322 | 689.46 ± 3.6
294.96 K, x1 = 0.422 | 750.87 ± 3.6
294.97 K, x1 = 0.533 | 815.76 ± 3.5
295 K, x1 = 0.113 | 567.56 ± 3.5
295.22 K, x1 = 0.625 | 868.11 ± 3.5
299.04 K, x1 = 0.422 | 742.17 ± 3.4
299.86 K, x1 = 0.113 | 558.16 ± 3.5
299.91 K, x1 = 0.533 | 803.63 ± 3.4
300.13 K, x1 = 0.625 | 854.48 ± 3.4
